Assay results taken from paper PMC4388869 (Journal of neuroimmune pharmacology : the official journal …, 2015).
Values joined by “and” are separate entries in the source; they are usually repeats but may differ in a detail not shown here. Identical values can stand only once.

Key:
Y88F-hDAT [1] = target: T1, Y88F-hDAT (Homo sapiens, UniProt Q01959, Y88F); format: cell-based
K92M-hDAT [2] = target: T2, K92M-hDAT (Homo sapiens, UniProt Q01959, K92M); format: cell-based
Y470F-hDAT [3] = target: T3, Y470F-hDAT (Homo sapiens, UniProt Q01959, Y470F); format: cell-based
Y470A-hDAT [4] = target: T4, Y470A-hDAT (Homo sapiens, UniProt Q01959, Y470A); format: cell-based
Y470F-hDAT [5] = target: T3, Y470F-hDAT; test: Basal substrate efflux assay, CHO cells with Y470F-hDAT; format: cell-based
Y470A-hDAT [6] = target: T4, Y470A-hDAT; test: Basal substrate efflux assay, CHO cells with Y470A-hDAT; format: cell-based
Y470H-hDAT = Y470H-hDAT (Homo sapiens, UniProt Q01959, Y470H); test: Basal substrate efflux assay, CHO cells with Y470H-hDAT; format: cell-based
Y88F-hDAT [7] = target: T1, Y88F-hDAT; test: Basal substrate efflux assay, CHO cells with Y88F-hDAT; format: cell-based
K92M-hDAT [8] = target: T2, K92M-hDAT; test: Basal substrate efflux assay, CHO cells with K92M-hDAT; format: cell-based
WT hDAT [9] = target: T5, WT hDAT (Homo sapiens, UniProt Q01959); test: Basal substrate efflux assay, CHO cells with WT hDAT; format: cell-based; details: preloading [3H]MPP+ 5 nM, 30 min
WT hDAT [10] = target: T5, WT hDAT; format: cell-based; details: ZnCl2 10 µM, CHO cells
WT hDAT [11] = target: T5, WT hDAT; test: [3H]WIN 35,428 binding assay, WT hDAT; details: ZnCl2 10 µM, CHO cells
Y88F-hDAT [12] = target: T1, Y88F-hDAT; test: [3H]WIN 35,428 binding assay, Y88F-hDAT; details: ZnCl2 10 µM, CHO cells
K92M-hDAT [13] = target: T2, K92M-hDAT; test: [3H]WIN 35,428 binding assay, K92M-hDAT; details: ZnCl2 10 µM, CHO cells
Y470F-hDAT [14] = target: T3, Y470F-hDAT; test: [3H]WIN 35,428 binding assay, Y470F-hDAT; details: ZnCl2 10 µM, CHO cells
Y470A-hDAT [15] = target: T4, Y470A-hDAT; test: [3H]WIN 35,428 binding assay, Y470A-hDAT; details: ZnCl2 10 µM, CHO cells
[16] = transfected PC12 cells (Fig. 4 legend: CHO), room temperature, 8 min
[17] = preloading 0.05 µM [3H]DA, 20 min, CHO cells
[18] = preloading [3H]MPP+ 5 nM, 30 min, CHO cells

T3 sequence (Q01959 whole entry Y470F): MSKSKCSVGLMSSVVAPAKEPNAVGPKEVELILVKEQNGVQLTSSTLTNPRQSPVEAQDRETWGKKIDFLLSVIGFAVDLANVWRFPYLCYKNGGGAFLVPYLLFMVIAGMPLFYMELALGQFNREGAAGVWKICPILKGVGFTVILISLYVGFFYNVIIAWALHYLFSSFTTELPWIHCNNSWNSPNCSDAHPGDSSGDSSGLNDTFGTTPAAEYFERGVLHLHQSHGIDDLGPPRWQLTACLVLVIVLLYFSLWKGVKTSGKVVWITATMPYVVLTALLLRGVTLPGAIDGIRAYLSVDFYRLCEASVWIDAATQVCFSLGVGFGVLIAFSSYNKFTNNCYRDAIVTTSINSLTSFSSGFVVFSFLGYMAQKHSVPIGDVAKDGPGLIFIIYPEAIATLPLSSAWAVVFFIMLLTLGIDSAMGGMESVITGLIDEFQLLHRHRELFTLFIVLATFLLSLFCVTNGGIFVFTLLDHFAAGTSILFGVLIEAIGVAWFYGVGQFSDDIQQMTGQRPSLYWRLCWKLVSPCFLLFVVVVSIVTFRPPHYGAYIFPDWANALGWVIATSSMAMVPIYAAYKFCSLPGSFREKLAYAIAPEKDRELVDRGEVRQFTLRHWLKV
T5 sequence (Q01959 whole entry): as the sequence (Q01959 whole entry Y470F) above, with F470Y counted along it
Sequence of Y470H-hDAT (Q01959 whole entry Y470H): as the sequence (Q01959 whole entry Y470F) above, with F470H counted along it
T4 sequence (Q01959 whole entry Y470A): as the sequence (Q01959 whole entry Y470F) above, with F470A counted along it
T2 sequence (Q01959 whole entry K92M): as the sequence (Q01959 whole entry Y470F) above, with K92M, F470Y counted along it
T1 sequence (Q01959 whole entry Y88F): as the sequence (Q01959 whole entry Y470F) above, with Y88F, F470Y counted along it

NCCc1ccc(O)c(O)c1 [DA, dopamine]
Vmax of [3H]DA uptake (Y88F-hDAT [1]; [16]): 14.8 ± 3.7 pmol/min/10^5 cells | Vmax of [3H]DA uptake (K92M-hDAT [2]; [16]): 4.5 ± 1.7 pmol/min/10^5 cells | Km of [3H]DA uptake compared to WT hDAT (Y470F-hDAT [3]; transfected PC12 cells): did not alter | Vmax of [3H]DA uptake compared to WT hDAT (Y470F-hDAT [3]; transfected PC12 cells): did not alter | Vmax of [3H]DA uptake (Y470A-hDAT [4]; transfected PC12 cells): 1.2 ± 0.2 pmol/min/10^5 cells | basal DA efflux compared to WT hDAT (Y470F-hDAT [5]): no effect | total [3H]DA in the cells at the start of the efflux experiment (Y470F-hDAT [5]; [17]): 20908 ± 4209 dpm | basal fractional [3H]DA efflux compared to WT hDAT (Y470A-hDAT [6]; at 1 and 10 min): elevated | total [3H]DA in the cells at the start of the efflux experiment (Y470A-hDAT [6]; [17]): 1158 ± 123 dpm | basal fractional [3H]DA efflux compared to WT hDAT (Y470H-hDAT; at 1, 10, 20 min): elevated | total [3H]DA in the cells at the start of the efflux experiment (Y470H-hDAT; [17]): 2488 ± 150 dpm | total [3H]DA in the cells at the start of the efflux experiment (Y88F-hDAT [7]; [17]): 41805 ± 6887 dpm | basal fractional [3H]DA efflux compared to WT hDAT (K92M-hDAT [8]; at 1 and 10 min): elevated | total [3H]DA in the cells at the start of the efflux experiment (K92M-hDAT [8]; [17]): 9655 ± 2160 dpm

C[n+]1ccc(-c2ccccc2)cc1 [MPP^+, 1-methyl-4-phenylpyridinium]
total [3H]MPP+ in the cells at the start of the efflux experiment (WT hDAT [9]): 12120 ± 397 dpm and 15516 ± 920 dpm | basal MPP+ efflux compared to WT hDAT (Y470F-hDAT [5]): no effect | total [3H]MPP+ in the cells at the start of the efflux experiment (Y470F-hDAT [5]; [18]): 7399 ± 359 dpm | basal fractional [3H]MPP+ efflux compared to WT hDAT (Y470A-hDAT [6]; at all time points): elevated | total [3H]MPP+ in the cells at the start of the efflux experiment (Y470A-hDAT [6]; [18]): 460 ± 46 dpm | total [3H]MPP+ in the cells at the start of the efflux experiment (Y470H-hDAT; [18]): 602 ± 28 dpm | basal fractional [3H]MPP+ efflux compared to WT hDAT (Y88F-hDAT [7]; at all time points): did not alter | total [3H]MPP+ in the cells at the start of the efflux experiment (Y88F-hDAT [7]; [18]): 5695 ± 450 dpm | basal fractional [3H]MPP+ efflux compared to WT hDAT (K92M-hDAT [8]; at all time points): did not alter | total [3H]MPP+ in the cells at the start of the efflux experiment (K92M-hDAT [8]; [18]): 967 ± 121 dpm

[Cl-].[Cl-].[Zn+2] [Zn^2+, ZnCl2]
decrease of [3H]DA uptake by Zn2+ relative to control (WT hDAT [10]): 47% and 48% | decrease of [3H]DA uptake by Zn2+ relative to control (Y88F-hDAT [1]; ZnCl2 10 µM, CHO cells): 73% | decrease of [3H]DA uptake by Zn2+ relative to control (K92M-hDAT [2]; ZnCl2 10 µM, CHO cells): 81% | decrease of [3H]DA uptake by Zn2+ relative to control (Y470F-hDAT [3]; ZnCl2 10 µM, CHO cells): 49% | decrease of [3H]DA uptake by Zn2+ relative to control (Y470A-hDAT [4]; ZnCl2 10 µM, CHO cells): 72% | increase of [3H]WIN 35,428 binding by Zn2+ relative to control (WT hDAT [11]): 48% and 54% | effect of Zn2+ on [3H]WIN 35,428 binding (Y88F-hDAT [12]): did not significantly alter | effect of Zn2+ on [3H]WIN 35,428 binding (K92M-hDAT [13]): did not significantly alter | effect of Zn2+ on [3H]WIN 35,428 binding (Y470F-hDAT [14]): but not in Y470F-hDAT and Y470A-hDAT | effect of Zn2+ on [3H]WIN 35,428 binding (Y470A-hDAT [15]): but not in Y470F-hDAT and Y470A-hDAT
